# Tests used:
# [1] = tested on: brush-border membrane vesicles (BBMVs); assay: Membrane fluidity of BBMVs by fluorescence polarization (fluorescence anisotropy); conditions: rat BBMVs, 37 °C, SLG-30 0.1-1.0% v/v, vs control, n = 4
# Procedure: To prepare BBMVs, we followed the methods as reported previously with a slight modification. Briefly, an in situ small intestinal loop was prepared in each rat, as mentioned above, and then, PBS (pH 7.4) was administered into the loop. The fat was trimmed off from the small intestine and mesentery. Then, the whole small intestine was soaked in ice-cold PBS (pH 7.4). The small intestine was divided into 10 cm segments. Mucosa was scraped out with a slide glass from each of these segments and used for subsequent studies. BBMVs were prepared by the divalent cation precipitation method using MgCl2 in the presence of ethylenebis (oxyethylenenitrilo) tetraacetic acid (EGTA). Briefly, the collected mucosa was homogenized in a buffer containing mannitol (300 mM), EGTA (5 mM), and Tris (pH 7.4) (12 mM) by using a tissue homogenizer. An aqueous solution of 10 mM magnesium chloride was added to the homogenate. The homogenate was centrifuged at 3000× g for 15 min. The supernatant was then centrifuged at 32,000× g for 30 min. The pellet was resuspended in a buffer containing mannitol (300 mM), EGTA (5 mM), and Tris (pH 7.4) (12 mM) by using a 26-G needle. The protein concentration was determined by the BCA method using bovine serum albumin as a standard, and the final concentration was adjusted to 1 mg/ml in each Eppendorf tube. The samples were frozen by liquid nitrogen and kept at −80 °C for further studies.
# The BBMVs (100 μg protein) were incubated with 1 μM DPH, with 0.5 μM tma-DPH or with 5 μM DNS-Cl in HEPES-Tris buffer (25 mM HEPES, 5.4 mM KCl, 1.8 mM CaCl2, 0.8 mM MgSO4, 140 mM NaCl, 5 mM glucose, pH 7.4 adjusted by 1 M Tris) in the dark at 37 °C for 30 min [25, 28]. Then, various concentrations (0.1% v/v, 0.25% v/v, 0.5% v/v, and 1.0% v/v) of SLG-30 were added. Then, the samples were incubated in the dark for 1 min at 37 °C. For the control group, the same procedure was carried out by adding the HEPES-Tris buffer only. The fluorescence intensities and the steady-state polarization of fluorescence expressed as the fluorescence anisotropy, r, of the labeled membrane vesicles were measured at 37 °C. The excitation and emission wavelengths were λex = 360 nm, and λem = 430 nm for DPH and tma-DPH and λex = 380 nm and λem = 480 nm for DNS-Cl. The measurements were carried out by using a Hitachi Spectrofluorometer (F-2000 Spectrofluorometer, Hitachi Seisakusho Corp, Yokohama, Japan) equipped with a polarizer set.
# The fluorescence anisotropy (r) was calculated using the following equation: r=IV−IH/IV+2IH where IV and IH respectively represent the […] fluorescence intensities to the polarized excitation plane.
# claudin-4 = assay: Western blotting of claudin-4 in rat small intestine after in situ treatment; assay type: in vivo
# Procedure: (§1) Western blotting was performed by the method described previously with slight modifications. Three male Wistar rats weighing 250 g were prepared to perform an in situ closed-loop method on the small intestine, as mentioned above. A control study, a treatment study, and a pretreatment study were conducted on the first, second, and third rat, respectively. For the control study, only PBS solution (pH 7.4) was administered into the small intestine, and then, the rat was sacrificed, while for the treatment study, SLG-30 was administered for 1 h, and then, the rat was sacrificed without washing the SLG-30 out. The pretreatment study was performed by administrating SLG-30 for 1 h then washing it out with PBS solution (pH 7.4), followed by sacrificing the rat after 4 h. The small intestine (60 cm) of three rats was taken and treated, as mentioned above, for extracting the BBMVs. […]
# (§2) The expression levels of proteins from the claudin family, in the homogenate of the small intestine membrane, were evaluated by western blotting. […] The signals were visualized by luminescence imaging (Fujifilm Luminescent Image Analyzer LAS4000 System, Tokyo, Japan). The intensity of each signal was corrected using the values obtained from the β-actin bands, and the relative protein intensity was expressed as the fold change compared to the relative protein intensity in the normal group.
# claudin-1 = assay: Western blotting of claudin-1 in rat small intestine after in situ treatment; assay type: in vivo; conditions: treatment with 0.5% (v/v) SLG-30 for 1 h, vs control
# Procedure: as §1, §2
# Caco-2 cells = assay: Caco-2 cell damage by LDH release; assay type: cell-based, Human
# Procedure: After the transport studies were over, the solution on the apical side of each well was collected. Cell injury caused by SLG-30 was determined by tracking the LDH release. The cell precipitate and the monolayers left on the filters were solubilized with 1% (v/v) Triton X-100. The solutions from apical sides and the lysates were centrifuged for 7 min at 200× g at a temperature of 4 °C. The activities of LDH in the supernatant were measured. (LDHrelease) stands for the activity of the LDH released into the apical side in the existence of SLG-30. (LDHcell) stands for the activity of the LDH obtained from the cell lysate. LDHreleased% was calculated by the following equation:LDHrelease% = LDHrelease × 100/(LDHrelease + LDHcells)
smiles,measurement,setting,value
"CCCCCCCCCCCC(=O)NC(CCC(=O)NCCCCC(NC(=O)CCC(NC(=O)CCCCCCCCCCC)C(=O)O)C(=O)O)C(=O)O (centres unmarked) [SLG-30, sodium dilauramidoglutamide lysine]",fluorescence anisotropy of tma-DPH (outer lipid bilayers),[1]; 0.5 μM tma-DPH,significantly increased
same,fluorescence anisotropy of DPH (inner lipid bilayers),[1]; 1 μM DPH,slightly decreased
same,fluorescence anisotropy of DNS-Cl (protein portion),"[1]; 5 μM DNS-Cl, p < 0.01",significantly reduced
same,claudin-4 expression level less than the control,"claudin-4; pretreatment study: 0.5% (v/v) SLG-30 for 1 h, washed out, proteins extracted after 4 h",~45%
same,decrease of the intensity of the claudin-4 band,"claudin-4; treatment with 0.5% (v/v) SLG-30 for 1 h, rat small intestine, vs control",64%
same,decrease of the intensity of the claudin-1 band,claudin-1,57%
same,activity of LDH released from Caco-2 cells vs control,"Caco-2 cells; SLG-30 0.001-0.1% (v/v), after the transport studies, n = 6",did not increase
same,Caco-2 cell injury,Caco-2 cells; SLG-30 at concentrations used in in vivo studies,the cells were detached and severely injured

# From publication PMC6523531, “Mechanistic Studies on the Absorption-Enhancing Effects of Gemini Surfactant on the Intestinal Absorption of Poorly Absorbed Hydrophilic Drugs in Rats” (Pharmaceutics, 2019)
